# Molecular target: T1, human apelin receptor (APJ, APLNR) (Homo sapiens, UniProt P35414)
# T1 construct: host or cells: Chinese hamster ovary (CHO) cells, stably integrated receptor
# T1 sequence (P35414 1-380): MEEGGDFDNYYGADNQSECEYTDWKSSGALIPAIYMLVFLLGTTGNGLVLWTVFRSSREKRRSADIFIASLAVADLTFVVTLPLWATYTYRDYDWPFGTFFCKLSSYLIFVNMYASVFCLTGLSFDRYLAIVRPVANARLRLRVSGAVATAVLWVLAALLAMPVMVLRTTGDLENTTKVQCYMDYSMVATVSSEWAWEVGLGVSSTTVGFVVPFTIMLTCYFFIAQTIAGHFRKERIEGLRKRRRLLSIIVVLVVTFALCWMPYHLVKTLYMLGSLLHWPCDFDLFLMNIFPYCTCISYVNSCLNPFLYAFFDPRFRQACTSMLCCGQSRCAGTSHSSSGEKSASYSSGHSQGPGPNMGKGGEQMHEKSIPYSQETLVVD
# Test: cell-based cAMP assay (TR-FRET) in Chinese hamster ovary cells expressing the apelin receptor
# Conditions: EC50 = 50% of control (apelin-13, 1 nM) response; cAMP in CHO cells, 0.5 h incubation; read-out: Potency Category
# Summary of the method: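 CHO cells stably expressing human APJ were forskolin-stimulated, then exposed to compound (0.0-100 μM, ≤1% DMSO) for 0.5 h. Lysate cAMP read by competitive TR-FRET immunoassay; EC50 and efficacy expressed relative to 1 nM apelin-13, four-parameter fit over ≥10 concentrations.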
row,SMILES,EC50 [µM]
1,"Cc1cccc(C)c1-c1c(C)nn2c(Nc3ccc(F)cc3)cc(C(=O)O)nc12 [Compound 139, 3-(2,6-dimethylphenyl)-7-[(4-fluorophenyl)amino]-2-methyl-8-hydropyrazolo[1,5-a]pyrimidine-5-carboxylic acid]",> 0.5
2,"COC(=O)c1cc(N(C)c2ccc(C)cc2)n2nc(C)c(-c3c(C)cccc3C)c2n1 [Compound 147, methyl 3-(2,6-dimethylphenyl)-2-methyl-7-[methyl(4-methylphenyl)amino]-8-hydropyrazolo[1,5-a]pyrimidine-5-carboxylate]",> 0.5
3,"Cc1ccc(-c2c(C)nn3c(C(C)C)cc(C(=O)O)nc23)c(C)c1 [Compound 45, 3-(2,4-dimethylphenyl)-2-methyl-7-(methylethyl)-8-hydropyrazolo[1,5-a]pyrimidine-5-carboxylic acid]",> 0.5
4,"COC(=O)c1cc(Nc2ccc(C(F)(F)F)cc2)n2nc(C)c(-c3c(C)cccc3C)c2n1 [Compound 136, methyl 3-(2,6-dimethylphenyl)-2-methyl-7-{[4-(trifluoromethyl)phenyl]amino}-8-hydropyrazolo[1,5-a]pyrimidine-5-carboxylate]",> 0.5
5,"Cc1cccc(C)c1-c1c(C)nn2c(C3CC3)cc(C(=O)O)nc12 [Compound 71, 3-(2,6-dimethylphenyl)-7-cyclopropyl-2-methyl-8-hydropyrazolo[1,5-a]pyrimidine-5-carboxylic acid]",0.2 to 0.5
6,"COC(=O)c1cc(N2CCCCC2)n2nc(C)c(-c3c(C)cccc3C)c2n1 [Compound 124, methyl 3-(2,6-dimethylphenyl)-2-methyl-7-piperidyl-8-hydropyrazolo[1,5-a]pyrimidine-5-carboxylate]",> 0.5
7,"CCOC(=O)c1cc(C(C)C)n2nc(CO)c(-c3c(C)cccc3C)c2n1 [Compound 86, ethyl 3-(2,6-dimethylphenyl)-2-(hydroxymethyl)-7-(methylethyl)-8-hydropyrazolo[1,5-a]pyrimidine-5-carboxylate]",> 0.5
8,"CCCN(C)c1cc(C(=O)O)nc2c(-c3c(C)cccc3C)c(C)nn12 [Compound 153, 3-(2,6-dimethylphenyl)-2-methyl-7-(methylpropylamino)-8-hydropyrazolo[1,5-a]pyrimidine-5-carboxylic acid]",> 0.5
9,"Cc1cccc(C)c1-c1c(C)nn2c(N3CCNCC3)cc(C(=O)O)nc12 [Compound 152, 3-(2,6-dimethylphenyl)-2-methyl-7-piperazinyl-8-hydropyrazolo[1,5-a]pyrimidine-5-carboxylic acid]",> 0.5
10,"CCOC(=O)c1cc(C(C)C)n2nc(C)c(-c3cccc(Cl)c3)c2n1 [Compound 30, ethyl 3-(3-chlorophenyl)-2-methyl-7-(methylethyl)-8-hydropyrazolo[1,5-a]pyrimidine-5-carboxylate]",> 0.5
11,"COC(=O)c1cc(C(C)C)n2nc(C(=O)OC)c(-c3c(C)cccc3C)c2n1 [Compound 95, methyl 3-(2,6-dimethylphenyl)-2-(methoxycarbonyl)-7-(methylethyl)-8-hydropyrazolo[1,5-a]pyrimidine-5-carboxylate]",> 0.5
12,"CCOC(=O)c1cc(C(C)C)n2ncc(-c3c(C)cccc3C)c2n1 [Compound 52, ethyl 3-(2,6-dimethylphenyl)-7-(methylethyl)-8-hydropyrazolo[1,5-a]pyrimidine-5-carboxylate]",> 0.5
13,"Cc1cccc(C)c1-c1c(C)nn2c(N3CCN(C)CC3)cc(C(=O)O)nc12 [Compound 106, 3-(2,6-dimethylphenyl)-2-methyl-7-(4-methylpiperazinyl)-8-hydropyrazolo[1,5-a]pyrimidine-5-carboxylic acid]",> 0.5
14,"Cc1nn2c(C(C)C)cc(C(=O)N(C)C)nc2c1-c1ccccc1 [Compound 16, N,N-dimethyl[2-methyl-7-(methylethyl)-3-phenyl(8-hydropyrazolo[1,5-a]pyrimidin-5-yl)]carboxamide]",> 0.5
15,"CCOC(=O)c1cc(C(C)C)n2nc(C)c(-c3cccc(OC)c3)c2n1 [Compound 18, ethyl 3-(3-methoxyphenyl)-2-methyl-7-(methylethyl)-8-hydropyrazolo[1,5-a]pyrimidine-5-carboxylate]",> 0.5
16,"CCOC(=O)c1cc(C(C)C)n2nc(C)c(-c3ccccc3OC)c2n1 [Compound 29, ethyl 3-(2-methoxyphenyl)-2-methyl-7-(methylethyl)-8-hydropyrazolo[1,5-a]pyrimidine-5-carboxylate]",> 0.5
17,"CC(C)c1cc(C(=O)O)nc2c(-c3ccccc3)c(C3CC3)nn12 [Compound 12, 2-cyclopropyl-7-(methylethyl)-3-phenyl-8-hydropyrazolo[1,5-a]pyrimidine-5-carboxylic acid]",> 0.5

row,SMILES,EC50 [µM]
1,"COc1cc(C(=O)O)nc2c(-c3c(C)cccc3C)c(C)nn12 [Compound 99, 3-(2,6-dimethylphenyl)-7-methoxy-2-methyl-8-hydropyrazolo[1,5-a]pyrimidine-5-carboxylic acid]",> 0.5
2,"CCc1nn2c(C(C)C)cc(C(=O)O)nc2c1-c1ccccc1 [Compound 13, 2-ethyl-7-(methylethyl)-3-phenyl-8-hydropyrazolo[1,5-a]pyrimidine-5-carboxylic acid]",> 0.5
3,"CCCc1cc(C(=O)O)nc2c(-c3ccccc3)c(C)nn12 [Compound 36, 2-methyl-3-phenyl-7-propyl-8-hydropyrazolo[1,5-a]pyrimidine-5-carboxylic acid]",> 0.5
4,"COc1cccc(Cl)c1-c1c(C)nn2c(C(C)C)cc(C(=O)O)nc12 [Compound 119, 3-(6-chloro-2-methoxyphenyl)-2-methyl-7-(methylethyl)-8-hydropyrazolo[1,5-a]pyrimidine-5-carboxylic acid]",> 0.5
5,"Cc1nn2c(C(C)C)cc(C(=O)O)nc2c1-c1ccccc1 [Compound 3, 2-methyl-7-(methylethyl)-3-phenyl-8-hydropyrazolo[1,5-a]pyrimidine-5-carboxylic acid]",> 0.5
6,"Cc1nn2c(C(C)C)cc(C(=O)O)nc2c1-c1c(F)cccc1F [Compound 104, 3-(2,6-difluorophenyl)-2-methyl-7-(methylethyl)-8-hydropyrazolo[1,5-a]pyrimidine-5-carboxylic acid]",> 0.5
7,"CCOC(=O)c1cc(CC)n2nc(C)c(-c3ccccc3)c2n1 [Compound 33, ethyl 7-ethyl-2-methyl-3-phenyl-8-hydropyrazolo[1,5-a]pyrimidine-5-carboxylate]",> 0.5
8,"Cc1nn2c(C(C)C)cc(C(=O)O)nc2c1-c1ccccc1Cl [Compound 21, 3-(2-chlorophenyl)-2-methyl-7-(methylethyl)-8-hydropyrazolo[1,5-a]pyrimidine-5-carboxylic acid]",> 0.5
9,"Cc1cccc(F)c1-c1c(C)nn2c(C(C)C)cc(C(=O)O)nc12 [Compound 51, 3-(6-fluoro-2-methylphenyl)-2-methyl-7-(methylethyl)-8-hydropyrazolo[1,5-a]pyrimidine-5-carboxylic acid]",0.2 to 0.5
10,"CC1=NC2C(C(C)C)=CC(C(=O)O)=NC2=C1c1ccccc1F (stereo not shown) [Compound 24, 3-(2-fluorophenyl)-2-methyl-7-(methylethyl)-8-hydropyrazolo[1,5-a]pyrimidine-5-carboxylic acid]",> 0.5
11,"CCOC(=O)c1cc(C(C)C)n2nc(C)c(-c3c(F)cccc3Cl)c2n1 [Compound 112, ethyl 3-(2-chloro-6-fluorophenyl)-2-methyl-7-(methylethyl)-8-hydropyrazolo[1,5-a]pyrimidine-5-carboxylate]",> 0.5
12,"COC(=O)c1cc(Nc2ccc(F)cc2)n2nc(C)c(-c3c(C)cccc3C)c2n1 [Compound 132, methyl 3-(2,6-dimethylphenyl)-7-[(4-fluorophenyl)amino]-2-methyl-8-hydropyrazolo[1,5-a]pyrimidine-5-carboxylate]",> 0.5
13,"COC(=O)c1cc(Nc2ccc(OC(F)(F)F)cc2)n2nc(C)c(-c3c(C)cccc3C)c2n1 [Compound 137, methyl 3-(2,6-dimethylphenyl)-2-methyl-7-{[4-(trifluoromethoxy)phenyl]amino}-8-hydropyrazolo[1,5-a]pyrimidine-5-carboxylate]",> 0.5
14,"COC(=O)c1cc(N(C)c2ccccc2)n2nc(C)c(-c3c(C)cccc3C)c2n1 [Compound 146, methyl 3-(2,6-dimethylphenyl)-2-methyl-7-(methylphenylamino)-8-hydropyrazolo[1,5-a]pyrimidine-5-carboxylate]",> 0.5
15,"Cc1cccc(CO)c1-c1c(C)nn2c(C(C)C)cc(C(=O)O)nc12 [Compound 128, 3-[6-(hydroxymethyl)-2-methylphenyl]-2-methyl-7-(methylethyl)-8-hydropyrazolo[1,5-a]pyrimidine-5-carboxylic acid]",< 0.1
16,"Cc1ccc(N(C)c2cc(C(=O)O)nc3c(-c4c(C)cccc4C)c(C)nn23)cc1 [Compound 150, 3-(2,6-dimethylphenyl)-2-methyl-7-[methyl(4-methylphenyl)amino]-8-hydropyrazolo[1,5-a]pyrimidine-5-carboxylic acid]",> 0.5
17,"CCOC(=O)c1cc(C(C)C)n2nc(C)c(-c3cccc(F)c3)c2n1 [Compound 25, ethyl 3-(3-fluorophenyl)-2-methyl-7-(methylethyl)-8-hydropyrazolo[1,5-a]pyrimidine-5-carboxylate]",> 0.5

# Reference: patent US12006321B2, “Substituted pyrazolo[1,5-a]pyrimidines as apelin receptor agonists” (Sanford Burnham Prebys Medical Discovery Institute, priority 2017, dated 2024)
